Consider 34 compounds from ChEMBL document CHEMBL4483862, “Open-source discovery of chemical leads for next-generation chemoprotective antimalarials” (2018).

Molecules are shown by their SMILES.

This test relates to Plasmodium berghei. Kind of test: Luciferase/luciferin-expressing antifolate-resistant parasites were used to infect a culture of HepG2 cells that were pre-incubated with compounds. Infected hepatocytes emit light due to the luciferase reaction. Assay results are presented as the percent inhibition of light emission compared to control. […]. The note with it: sporozoite; for IC90: read-out: LUCIFERASE INFECTION ASSAY - IC90. It counts as functional.

Where [1] appears, read: read-out: LUCIFERASE INFECTION ASSAY - IC50.

In general, IC50 refers to the concentration needed to halve the response being measured. One may read the IC90 as the concentration needed for an effect of 90%. As for `COc1cc(-c2ccc3ncc(-c4cccc(C(C)=O)c4)n3n2)cc(OC)c1OC`, the IC90 came to 1.39 µM. Besides, the IC50 (HEPG2TOX_HILL_SLOPE 2.19, HEPG2TOX_R_SQUARED 0.885, PBLUC_HILL_SLOPE 9.54, PBLUC_R_SQUARED 0.57, read-out: LUCIFERASE INFECTION ASSAY - IC50) is 1.11 µM.
On to `O=C(Nc1nc(-c2ccccn2)cs1)C1CCCN(C(=O)c2ccc(Cl)cc2)C1` (stereo not drawn), for which the IC90 is > 10 µM. Moreover, the IC50 (FFLUC_HILL_SLOPE 0.539, FFLUC_R_SQUARED 0.289, HEPG2TOX_HILL_SLOPE 0.153, HEPG2TOX_R_SQUARED 0.318, read-out: LUCIFERASE INFECTION ASSAY - IC50) was > 10 µM.
Consider `CCCn1c(NC(=O)c2sc3ccccc3c2Cl)nc2ccccc21`, for which the IC90 is > 10 µM. Also, the IC50 under setting [1] was > 10 µM.
Consider `CCN1C(=O)N(Cc2cccc(OC)c2)C(=O)C12CCN(Cc1cc3ccccc3s1)CC2`, for which the IC90 is > 7.12 µM. In addition, under “HEPG2TOX_HILL_SLOPE 3.09, HEPG2TOX_R_SQUARED 0.881, PBLUC_HILL_SLOPE 9.24, PBLUC_R_SQUARED 0.267, read-out: LUCIFERASE INFECTION ASSAY - IC50”, the IC50 amounted to 6.06 µM.
On to `C/C(=N\n1c(-c2ccc(OC(F)F)cc2)cs/c1=N\CCc1ccccc1)c1ccc2c(c1)OCO2`, for which the IC90 is > 10 µM. Besides, the IC50 (PBLUC_HILL_SLOPE 2.39, PBLUC_R_SQUARED 0.524, read-out: LUCIFERASE INFECTION ASSAY - IC50) was determined as 9.18 µM.
Consider `COc1ccc(C(N)=O)cc1NC(=O)NCc1ccc(N2CCCCCC2)nc1`, for which the IC90 was > 10 µM. For the same compound, the IC50 under setting [1] was > 10 µM.
Take `Cn1ccc2cc(-c3cn4c(-c5ccc6c(c5)OCO6)cnc4cn3)ccc21`: the IC90 was determined as 0.402 µM. Where the note is “HEPG2TOX_HILL_SLOPE 0.831, HEPG2TOX_R_SQUARED 0.884, PBLUC_HILL_SLOPE 11.3, PBLUC_R_SQUARED 0.726, read-out: LUCIFERASE INFECTION ASSAY - IC50”, the IC50 turned out to be 0.33 µM.
As to `O=C(N/N=C/c1ccc(F)cc1)c1ccc[n+]([O-])c1`, the IC90 was > 10 µM. For the same compound, the IC50 (PBLUC_HILL_SLOPE 1.11, PBLUC_R_SQUARED 0.152, read-out: LUCIFERASE INFECTION ASSAY - IC50) was 5.8 µM.
On to `COc1cc(OC)cc(-c2cc3c(Nc4ccc5c(c4)OCO5)nccc3[nH]2)c1`, for which the concentration for an effect of 90% (IC90) stood at 6.69 µM. In addition, the IC50 (PBLUC_HILL_SLOPE 1.19, PBLUC_R_SQUARED 0.67, read-out: LUCIFERASE INFECTION ASSAY - IC50) was 1.06 µM.
With `COC(=O)c1sc(NC(=O)COC(=O)C2Cc3ccccc3CN2S(=O)(=O)c2cccs2)c(C(=O)OC)c1C` (stereo not drawn), the IC90 was > 10 µM. For the same compound, the half-inhibitory concentration (IC50) under setting [1] is > 10 µM.
On to `O=C(NC1CCN(Cc2ccccc2)C1)c1cc2cc(Br)ccc2[nH]1` (stereo not drawn), for which the IC90 was > 10 µM. For the same compound, where the note is “FFLUC_HILL_SLOPE 15.5, FFLUC_R_SQUARED 0.545, HEPG2TOX_HILL_SLOPE 1.06, HEPG2TOX_R_SQUARED 0.919, PBLUC_HILL_SLOPE 3.35, PBLUC_R_SQUARED 0.069, read-out: LUCIFERASE INFECTION ASSAY - IC50”, the IC50 is 7.09 µM.
As to `O=c1c2ccccc2c(=O)c2oc3cc4oc5c(=O)c6ccccc6c(=O)c5[nH]c4cc3[nH]c12`, the IC90 was 4 µM. Under “FFLUC_HILL_SLOPE 12.7, FFLUC_R_SQUARED 0.208, HEPG2TOX_HILL_SLOPE 4.53, HEPG2TOX_R_SQUARED 0.902, PBLUC_HILL_SLOPE 7.46, PBLUC_R_SQUARED 0.34, read-out: LUCIFERASE INFECTION ASSAY - IC50”, the IC50 stood at 2.98 µM.
Turning to `COc1ccccc1N1CCN(c2nc(=O)c3c([nH]2)CCC3)CC1`, the IC90 was 1.26 µM. The IC50 (FFLUC_HILL_SLOPE 1.43, FFLUC_R_SQUARED 0.67, PBLUC_HILL_SLOPE 2.78, PBLUC_R_SQUARED 0.645, read-out: LUCIFERASE INFECTION ASSAY - IC50) came out at 0.572 µM.
`CCOC(=O)c1sc(N(NC(=O)c2cc(C(F)(F)F)cc(C(F)(F)F)c2)C(=O)c2cc(C(F)(F)F)cc(C(F)(F)F)c2)c2c1CC(C)(C)CC2=O`: the concentration for an effect of 90% (IC90) is > 4.33 µM. Moreover, the IC50 under setting [1] was > 4.33 µM.
With `CCOC(=O)c1c(NC(=O)Cn2ncc(Cl)c(Cl)c2=O)sc(C(=O)NC)c1C`, the IC90 stood at 6.18 µM. Moreover, for the setting “HEPG2TOX_HILL_SLOPE 14.3, HEPG2TOX_R_SQUARED 0.883, PBLUC_HILL_SLOPE 2.04, PBLUC_R_SQUARED 0.801, read-out: LUCIFERASE INFECTION ASSAY - IC50”, the IC50 is 2.11 µM.
With `CNc1ccc2ncc(-c3ccc(OC)nc3)n2n1`, the IC90 turned out to be 12.8 µM. Further, the IC50 (HEPG2TOX_HILL_SLOPE 1.61, HEPG2TOX_R_SQUARED 0.963, PBLUC_HILL_SLOPE 2.26, PBLUC_R_SQUARED 0.378, read-out: LUCIFERASE INFECTION ASSAY - IC50) stood at 4.85 µM.
In the case of `N=C1c2ccccc2CN1NC(=O)CCCOc1ccc(Cl)cc1Cl`, the IC90 stood at 7.29 µM. Moreover, the IC50 (PBLUC_HILL_SLOPE 1.16, PBLUC_R_SQUARED 0.64, read-out: LUCIFERASE INFECTION ASSAY - IC50) was determined as 1.1 µM.
As to `CC1=NN(c2ccccc2)C(=O)/C1=C\c1c(C)nn(-c2ccccc2)c1Sc1nc2ccccc2s1`, the IC90 is > 10 µM. Under “PBLUC_HILL_SLOPE 3.11, PBLUC_R_SQUARED 0.577, read-out: LUCIFERASE INFECTION ASSAY - IC50”, the half-maximal inhibitory concentration (IC50) was 6.6 µM.
`CCN(CC)S(=O)(=O)c1ccc(-c2csc(Nc3ccccn3)n2)cc1`: the IC90 is > 10 µM. In addition, the IC50 under setting [1] is > 10 µM.
As for `CC(C1CC2CCC1C2)N1C(=O)C(=O)N(CC(=O)Nc2cccc(F)c2)C1=O` (stereo not drawn), the concentration for an effect of 90% (IC90) worked out at 3.86 µM. Also, the IC50 (PBLUC_HILL_SLOPE 16.7, 2.98, PBLUC_R_SQUARED 0.617, 0.740, read-out: LUCIFERASE INFECTION ASSAY - IC50) came out at 4.13 µM.
With `Cc1cccc(-c2nc3ccnc(Nc4ccc(C(C)C)cc4)c3[nH]2)c1`, the IC90 was > 10 µM. The IC50 (HEPG2TOX_HILL_SLOPE 8.42, HEPG2TOX_R_SQUARED 0.9, PBLUC_HILL_SLOPE 13.4, PBLUC_R_SQUARED 0.519, read-out: LUCIFERASE INFECTION ASSAY - IC50) came out at 8.58 µM.
Consider `NC(=O)c1cc(Cl)ccc1OCc1ccc(OC(F)(F)F)cc1`, for which the IC90 is > 10 µM. In addition, the IC50 under setting [1] is > 10 µM.
`CCCCNC(=O)c1c(NC(=O)c2ccccc2C(F)(F)F)nc2ccccn12`: the concentration for an effect of 90% (IC90) came out at 8.11 µM. The IC50 (HEPG2TOX_HILL_SLOPE 6.6, HEPG2TOX_R_SQUARED 0.306, PBLUC_HILL_SLOPE 21.5, PBLUC_R_SQUARED 0.838, read-out: LUCIFERASE INFECTION ASSAY - IC50) stood at 7.33 µM.
For `CN1/C(=C\C=N\NC(=O)c2cccs2)C(C)(C)c2ccccc21`, the concentration for an effect of 90% (IC90) worked out at 8.4 µM. Moreover, the IC50 (PBLUC_HILL_SLOPE 3.23, PBLUC_R_SQUARED 0.426, read-out: LUCIFERASE INFECTION ASSAY - IC50) was found to be 4.25 µM.
Take `O=C1CC(c2ccccc2Cl)Cc2c1cnn2-c1nc2ccccc2[nH]1` (stereo not drawn): the concentration for an effect of 90% (IC90) was found to be 3.82 µM. In addition, the IC50 under setting [1] amounted to 3.26 µM.
On to `Cc1ccc2[nH]c(-c3cccs3)c(CCC(=O)N(C)C3CCS(=O)(=O)C3)c2c1` (stereo not drawn), for which the IC90 turned out to be 3.85 µM. For the same compound, the IC50 (PBLUC_HILL_SLOPE 12.5, PBLUC_R_SQUARED 0.681, read-out: LUCIFERASE INFECTION ASSAY - IC50) was determined as 3.23 µM.
With `CC(C)(C)c1ccc(/C=C2\CCc3c2nc2ccccc2c3C(=O)OCC(=O)NNC(=O)c2ccccc2F)cc1`, the IC90 was found to be 5.46 µM. For the same compound, the IC50 (PBLUC_HILL_SLOPE 2.93, PBLUC_R_SQUARED 0.289, read-out: LUCIFERASE INFECTION ASSAY - IC50) was found to be 2.58 µM.
In the case of `c1ccc2cc(-c3cc4ccccc4[nH]3)ccc2c1`, the IC90 is > 13.6 µM. The IC50 (HEPG2TOX_HILL_SLOPE 2.23, HEPG2TOX_R_SQUARED 0.773, PBLUC_HILL_SLOPE 13.6, PBLUC_R_SQUARED 0.0646, read-out: LUCIFERASE INFECTION ASSAY - IC50) was found to be 12.2 µM.
For `CCOc1ccc(-c2nc(CSc3nc(C)nc4sc5c(c34)CCCC5)cs2)cc1OC`, the 90% effect concentration (IC90) is > 10 µM. The IC50 (FFLUC_HILL_SLOPE 22.7, FFLUC_R_SQUARED 0.174, read-out: LUCIFERASE INFECTION ASSAY - IC50) was > 10 µM.
In the case of `Fc1ccc(N2c3cc(F)ccc3N=C(c3ccccc3)C2c2ccccc2)cc1` (stereo not drawn), the 90% effect concentration (IC90) is > 8.32 µM. Also, the IC50 (FFLUC_HILL_SLOPE 13.2, FFLUC_R_SQUARED 0.317, HEPG2TOX_HILL_SLOPE 1.35, HEPG2TOX_R_SQUARED 0.526, PBLUC_HILL_SLOPE 1.66, PBLUC_R_SQUARED 0.328, read-out: LUCIFERASE INFECTION ASSAY - IC50) was determined as 5.47 µM.
As to `CC(=O)Nc1cccc(-c2cn3c(-c4ccc(Oc5ccccc5)cc4)cnc3cn2)c1`, the IC90 is > 7.85 µM. Besides, the IC50 (HEPG2TOX_HILL_SLOPE 0.0216, HEPG2TOX_R_SQUARED 0.0103, PBLUC_HILL_SLOPE 2.46, PBLUC_R_SQUARED 0.352, read-out: LUCIFERASE INFECTION ASSAY - IC50) was > 7.85 µM.
As for `CCNC(=O)c1nn(Cc2cccc(OC)c2)c2c1CN(CCC(C)c1ccc(C)o1)CC2` (stereo not drawn), the IC90 was > 7.32 µM. Besides, the 50% inhibitory concentration (IC50) (PBLUC_HILL_SLOPE 5.04, PBLUC_R_SQUARED 0.686, read-out: LUCIFERASE INFECTION ASSAY - IC50) is 6.68 µM.
For `O=C(Nc1ccc(F)c(Cl)c1)c1cc2ccccc2s1`, the IC90 is > 10.8 µM. In addition, the IC50 under setting [1] is > 10.8 µM.
For the compound `Cc1ccc(C)c(NC(=O)C(OC(=O)c2c3c(nc4ccccc24)CCN(C)C3)c2ccccc2)c1` (stereo not drawn), the IC90 is > 10 µM. For the same compound, the IC50 (HEPG2TOX_HILL_SLOPE 0.135, HEPG2TOX_R_SQUARED 0.194, read-out: LUCIFERASE INFECTION ASSAY - IC50) was > 10 µM.
